Measured values taken from patent US20120121554A1, “HMG-COA SECONDARY METABOLITES AND USES THEREOF” (EDENSPACE SYSTEMS CORPORATION, priority 2009, published 2012).

Tests used:
HMG-CoA reductase = molecular target: T1, HMG-CoA reductase (Rattus norvegicus, UniProt P51639); conditions: compound at 10^−3 M; cited from earlier work
T1 sequence (P51639 1-887): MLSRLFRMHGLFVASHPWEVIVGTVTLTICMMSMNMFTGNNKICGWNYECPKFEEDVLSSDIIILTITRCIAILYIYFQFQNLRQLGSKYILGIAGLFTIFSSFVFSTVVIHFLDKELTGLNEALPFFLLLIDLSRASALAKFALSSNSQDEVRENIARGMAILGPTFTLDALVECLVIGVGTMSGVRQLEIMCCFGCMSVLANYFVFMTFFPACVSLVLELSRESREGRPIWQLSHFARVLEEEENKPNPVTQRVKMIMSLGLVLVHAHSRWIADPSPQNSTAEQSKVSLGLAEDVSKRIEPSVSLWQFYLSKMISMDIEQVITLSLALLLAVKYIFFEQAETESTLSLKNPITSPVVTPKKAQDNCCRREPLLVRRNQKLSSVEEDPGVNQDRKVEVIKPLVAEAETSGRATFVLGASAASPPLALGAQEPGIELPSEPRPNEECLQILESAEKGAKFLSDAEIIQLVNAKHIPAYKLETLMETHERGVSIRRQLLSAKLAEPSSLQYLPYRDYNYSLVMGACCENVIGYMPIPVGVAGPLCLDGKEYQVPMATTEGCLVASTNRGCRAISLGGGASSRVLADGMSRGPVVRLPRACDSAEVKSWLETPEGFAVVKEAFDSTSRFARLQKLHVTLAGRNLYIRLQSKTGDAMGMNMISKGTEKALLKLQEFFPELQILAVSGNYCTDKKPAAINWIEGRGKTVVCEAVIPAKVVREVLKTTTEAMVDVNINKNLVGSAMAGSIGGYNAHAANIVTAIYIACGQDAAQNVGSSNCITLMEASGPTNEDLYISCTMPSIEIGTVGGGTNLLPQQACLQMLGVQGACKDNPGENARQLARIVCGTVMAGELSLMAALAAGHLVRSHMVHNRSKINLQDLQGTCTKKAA

[1] = system: Experimental autoimmune encephalomyelitis (EAE) in SJL/J mice; experiment: EAE mouse model, clinical assessment (day of onset); assay type: in vivo
Procedure: To induce EAE, five-to-seven week old SJL/J (H-2S) female mice (Charles River; Wilmington, Mass.) were immunized subcutaneously with 200 μg PLP139-151 in a 0.2 mL emulsion comprised of equal volumes of phosphate-buffered saline (PBS) and complete Freund's adjuvant (CFA) containing killed Mycobacterium Tuberculosis strain H37RA (at a final concentration of 4 mg/ml, Difco, Detroit, Mich.). PLP139-151/CFA was administered to regions above the shoulder and the flanks (4 sites total; 50 μL at each injection site). In addition, 200 ng of pertussis toxin (List Biological Laboratories, Campbell, Calif.) was injected intraperitoneally on the day of immunization and 2 days post immunization.
Mice received intravenous injections of vehicle (PBS), HMG (25 μmol/mouse), or PLP-BPI (100 nmol/mouse) on days 4, 7, and 10 (n=6 per treatment group).

[2] = system: serum cytokines and chemokines; experiment: Serum cytokine and chemokine levels in EAE mice (multiplex ELISA array); assay type: in vivo, mouse
Procedure: FIG. 7 depicts serum levels of cytokines and chemokines in various treatment groups (PBS only control, PLP-BPI-treated, and HMG-treated) 14 days after immunization with PLP139-151/CFA to induce EAE. Data represent the mean±standard deviation. Statistical significance was determined by one way Analysis of Variance followed by post-hoc testing using the Tukey test.
Blood samples were collected from the facial vein in PBS-, HMG-, and PLP-BPI-treated mice on day 14 and day 28 (n=3 per group). Blood samples were allowed to clot overnight at 2-8° C. before centrifuging for 10 min at 2000×g. Serum was removed and stored at −80° C. until measurement of cytokines and chemokines was performed by a commercial analytical services laboratory.
The levels of key cytokines and chemokines were measured by multiplex ELISA array by a commercial analytical laboratory.

SMILES | in vitro inhibition of HMGR @10^−3 M (HMG-CoA reductase) | Disease phenotype as compared to vehicle only ([1]; EAE mice, i.v. on days 4, 7, 10) | Delay of average day of onset of EAE as compared to PBS treated mice ([1]; SJL/J mice, HMG 25 μmol/mouse i.v. on days 4, 7, 10) | Day of onset of EAE (day when EAE clinical score is one or more) ([1]; SJL/J mice, i.v. on days 4, 7, 10, HMG 25 μmol/mouse, PLP-BPI 100 nmol/mouse, PBS group day 11) [days] | Serum RANTES level ([2]; day 14, compared to PBS group) | Serum IFN gamma concentration ([2]; day 14, compared to PBS- or PLP-BPI-treated mice) | Serum IL-17 level ([2]; day 14, compared to PLP-BPI-treated animals) | Inflammation as measured by levels of some cytokines ([2]; day 14, versus PBS only) | Serum IL-1 alpha level ([2]; day 14 after immunization, compared to PBS group)
CCCCCCCCCCCCCCCC(O)(CC(=O)O)CC(=O)O [3j] | 99 |  |  |  |  |  |  |  | 
CCCCCCCCCCCCCCCCCCCC(O)(CC(=O)O)CC(=O)O [3m] | 86 |  |  |  |  |  |  |  | 
CC(O)(CC(=O)O)CC(=O)O [HMG, 3-hydroxy-3-methylglutaric acid] |  | ameliorated disease phenotype | about 2 days | 13 | statistically significant reductions | much lower | significantly lower | reduced inflammation | statistically significant reductions
